Laboratory results as given in patent publication US20200017495A1, “NOVEL HETEROCYCLIC COMPOUNDS AND THEIR USE IN PREVENTING OR TREATING BACTERIAL INFECTIONS” (priority 2017, published 2020).

Tested on: Enterobacter cloacae (ECL) isolates
Assay: MIC of compounds alone and combined with antibacterials, broth microdilution (CLSI)
Assay type: cell-based
In short: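 First, log-phase suspensions are brought to 5.10^5 CFU/mL final in ca-MHB; plates then incubate 16-20 h at 35° C in air. Growth is judged visually, giving the compound MIC alone and the antibacterial MIC at each compound concentration.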

C=CC1=C(C(=O)O)N2C(=O)[C@@H](NC(=O)/C(=N\OCC(=O)O)c3csc(N)n3)[C@H]2SC1 [FIX, Cefixime]
32 µg/mL: MIC ATB in combination (ECL UFR14, AF2 @ 8 μg/mL) | MIC ATB in combination (ECL UFR14, AF3 @ 8 μg/mL)
128 µg/mL: MIC ATB in combination (ECL UFR13, CLA @ 4 μg/mL) | MIC ATB in combination (ECL UFR60, AF2 @ 8 μg/mL) | MIC ATB in combination (ECL UFR60, CLA @ 4 μg/mL)
>128 µg/mL: MIC ATB in combination (ECL UFR14, CLA @ 4 μg/mL) | MIC ATB in combination (ECL UFR38, AF3 @ 8 μg/mL) | MIC ATB in combination (ECL UFR38, CLA @ 4 μg/mL) | MIC ATB in combination (ECL UFR51, CLA @ 4 μg/mL) | MIC ATB in combination (ECL UFR70, CLA @ 4 μg/mL) | MIC ATB in combination (ECL UFR84, AF2 @ 8 μg/mL) | MIC ATB in combination (ECL UFR84, CLA @ 4 μg/mL) | MIC ATB in combination (ECL UFR85, CLA @ 4 μg/mL) | MIC (strain ECL 2185D, genotype OXA-163) | MIC (strain ECL 190310, genotype AmpC) | MIC (strain ECL 200138, genotype AmpC) | MIC (strain ECL 200322, genotype TEM-1, CTX-M-15, OXA-1) | MIC (strain ECL 260033, genotype AmpC) | MIC (strain ECL 260253, genotype TEM-1, KPC-3) | MIC (strain ECL 260323, genotype AmpC) | MIC (strain ECL 260508, genotype TEM-1, CTX-M-15) | MIC (strain ECL HAN, genotype OXA-35) | MIC (strain ECL NEM146383, genotype AmpC) | MIC (strain ECL P99, genotype AmpC) | MIC (strain ECL UFR13, genotype TEM-1, SHV-12, CTX-M-9, OXA-48) | MIC (strain ECL UFR14, genotype TEM-1, SHV-12, CTX-M-15, DHA-1, OXA-1, OXA-48) | MIC (strain ECL UFR38, genotype CTX-M-15, NDM-1) | MIC (strain ECL UFR51, genotype SHV-12, IMP-8) | MIC (strain ECL UFR60, genotype TEM-1, CTX-M-15, KPC-2) | MIC (strain ECL UFR70, genotype TEM-1, CTX-M-15, CMY-2, OXA-1, Porin loss) | MIC (strain ECL UFR84, genotype TEM-1, AmpC, OXA-1) | MIC (strain ECL UFR85, genotype TEM-1, CTX-M-15, AmpC) | MIC (strain ECL UFR192, genotype TEM-1, NDM-1, antibiotic alone) | MIC ATB in combination (strain ECL UFR192, with AF2 @ 8 μg/mL) | MIC ATB in combination (strain ECL UFR192, with AF3 @ 8 μg/mL) | MIC ATB in combination (strain ECL UFR192, with CLA @ 4 μg/mL) | MIC (strain ECL UFR193, genotype TEM-1, CTX-M-15, OXA-1, NDM-1, RmtC, antibiotic alone) | MIC ATB in combination (strain ECL UFR193, with AF2 @ 8 μg/mL) | MIC ATB in combination (strain ECL UFR193, with CLA @ 4 μg/mL) | MIC (strain ECL UFR195, genotype TEM-1, CTX-M-15, OXA-1, OXA-48) | MIC ATB in combination (strain ECL UFR195, with CLA @ 4 μg/mL)
0.5 µg/mL: MIC ATB in combination (ECL UFR200, AF3 @ 8 μg/mL) | MIC ATB in combination (strain ECL UFR195, with AF3 @ 8 μg/mL)
<=0.25 μg/mL: MIC ATB in combination (ECL UFR70, AF2 @ 8 μg/mL) | MIC ATB in combination (strain ECL UFR193, with AF3 @ 8 μg/mL) | MIC ATB in combination (strain ECL UFR194, with AF2 @ 8 μg/mL) | MIC ATB in combination (strain ECL UFR194, with AF3 @ 8 μg/mL)
4 µg/mL: MIC ATB in combination (ECL UFR13, AF2 @ 8 μg/mL) | MIC (strain ECL UFR194, genotype OXA-48)
2 µg/mL: MIC ATB in combination (ECL UFR13, AF3 @ 8 μg/mL)
512 µg/mL: MIC (strain ECL 190408, genotype TEM-1, CTX-M-15, OXA-1)
<0.25 µg/mL: MIC ATB in combination (ECL UFR38, AF2 @ 8 μg/mL) | MIC ATB in combination (ECL UFR51, AF2 @ 8 μg/mL) | MIC ATB in combination (ECL UFR51, AF3 @ 8 μg/mL) | MIC ATB in combination (ECL UFR70, AF3 @ 8 μg/mL) | MIC ATB in combination (ECL UFR85, AF2 @ 8 μg/mL)
64 µg/mL: MIC ATB in combination (ECL UFR84, AF3 @ 8 μg/mL)
8 µg/mL: MIC ATB in combination (ECL UFR12, CLA @ 4 μg/mL) | MIC ATB in combination (ECL UFR60, AF3 @ 8 μg/mL) | MIC ATB in combination (strain ECL UFR194, with CLA @ 4 μg/mL) | MIC ATB in combination (strain ECL UFR195, with AF2 @ 8 μg/mL)
1 µg/mL: MIC ATB in combination (ECL UFR85, AF3 @ 8 μg/mL) | MIC ATB in combination (ECL UFR200, AF2 @ 8 μg/mL)
16 µg/mL: MIC ATB in combination (ECL UFR200, CLA @ 4 μg/mL) | MIC (strain ECL UFR12, genotype CTX-M-9, OXA-48)
